As usually defined, the IC50 is the point on the concentration scale where inhibition reaches its midpoint.

The target in this assay is histone deacetylase (HDAC). Nature of the assay: Inhibition of Histone Deacetylase Enzymatic Activity. To be noted: substrate Boc-Lys(Ac)-AMC, Fluor-de-Lys developer, 37° C., 20 min; against one or more of HDAC-1 to HDAC-11, SirT1 to SirT7 (isoform not given); read-out: HDAC Inhibitory Activity (IC50). Type of assay: biochemical. The protocol: The following protocol is used to assay the compounds of the invention. In the assay, the buffer used is 25 mM HEPES, pH 8.0, 137 mM NaCl, 2.7 mM KCl, 1 mM MgCl2 and the substrate is Boc-Lys(Ac)-AMC in a 50 mM stock solution in DMSO. The enzyme stock solution is 4.08 μg/mL in buffer.
The compounds are pre-incubated (2 μl in DMSO diluted to 13 μl in buffer for transfer to assay plate) with enzyme (20 μl of 4.08 μg/mL) for 10 min at room temperature (35 μl pre-incubation volume). The mixture is pre-incubated for 5 min at room temperature. The reaction is started by bringing the temperature to 37° C. and adding 16 μl substrate. Total reaction volume is 50 μl. […] A plate is incubated in the dark for 10 min at room temperature before reading (λEX=360 nm, λEm=470 nm, Cutoff filter at 435 nm).
In the table, “A” indicates inhibitory activity at a concentration of <0.05 μM; “B” indicates inhibitory activity at a concentration >0.05 μM but <0.5 μM, “C” indicates inhibitory activity at >0.5 μM but <2 μM and “D” indicates inhibitory activity at a concentration of >2 μM but <10 μM.
On to `O=C(CCOC1C[C@@H](C(=O)Nc2cccc3cccnc23)N(C(=O)OCc2ccccc2)C1)NO` (stereo in doubt) [Compound 112d, (2S,4S)-benzyl 4-(3-(hydroxyamino)-3-oxopropoxy)-2-(quinolin-8-ylcarbamoyl) pyrrolidine-1-carboxylate], for which the IC50 fell in the range of 50 to 500 nM.

Turning to `O=C(CCCCCN1C(=O)[C@@H](CC2CCCCC2)NC(=O)c2ccccc21)NO` [Compound 68b21, 6-((R)-3-(cyclohexylmethyl)-2,3,4,5-tetrahydro-2,5-dioxobenzo[e][1,4]diazepin-1-yl)-N-hydroxyhexanamide], the IC50 is 50 to 500 nM. For `CC(C)[C@H]1C(=O)Nc2cc(C(=O)NO)ccc2N1Cc1cccs1` [Compound 16e, (S)-1,2,3,4-tetrahydro-N-hydroxy-2-isopropyl-3-oxo-1-((thiophen-2-yl)methyl)quinoxaline-6-carboxamide], the IC50 is 2000 to 10000 nM. With `O=C(CCO[C@@H]1C[C@@H](C(=O)Nc2cccc3cccnc23)N(C(=O)OCc2ccccc2)C1)NO` [Compound 112a, (2S,4R)-benzyl 4-(3-(hydroxyamino)-3-oxopropoxy)-2-(quinolin-8-ylcarbamoyl)pyrrolidine-1-carboxylate], the IC50 was in the range of 500 to 2000 nM. Consider `O=C(NO)c1ccc2c(c1)NC(=O)[C@H](Cc1ccc(O)cc1)N2` [Compound 6h, (S)-2-(4-Hydroxybenzyl)-1,2,3,4-tetrahydro-N-hydroxy-3-oxoquinoxaline-6-carboxamide], for which the IC50 fell in the range of 2000 to 10000 nM.

In the case of `CC(C)(C)OC(=O)NCCCC[C@@H]1C(=O)Nc2ccccc2N1Cc1ccc(C(=O)NO)cc1` [Compound 54b9, (R)-tert-butyl 4-(1-(4-(hydroxycarbamoyl)benzyl)-3-oxo-1,2,3,4-tetrahydroquinoxalin-2-yl)butylcarbamate], the IC50 was less than 50 nM. As for `O=C(CCCCCN1C(=O)[C@@H](Cc2c[nH]c3ccccc23)NC(=O)c2ccccc21)NO` [Compound 68b8, 6-((R)-3-((1H-Hz, indol-3-yl)methyl)-2,3,4,5-tetrahydro-2,5-dioxobenzo[e][1,4]diazepin-1-yl)-N-hydroxyhexanamide], the IC50 fell in the range of 50 to 500 nM. Regarding `O=C(/C=C/c1ccc2c(c1)NC(=O)[C@H](Cc1c[nH]c3ccccc13)N2)NO` [Compound 66c, (E)-3-((S)-2-((1H-indol-3-yl)methyl)-1,2,3,4-tetrahydro-3-oxoquinoxalin-6-yl)-N-hydroxyacrylamide], the IC50 lay in the range of 500 to 2000 nM.

`C[C@@H]1NC(=O)c2ccccc2N(CCCCCC(=O)NO)C1=O` [Compound 68b22, 6-((S)-2,3,4,5-Tetrahydro-3-methyl-2,5-dioxobenzo[e][1,4]diazepin-1-yl)-N-hydroxyhexanamide]: the IC50 lay within 500 to 2000 nM. Take `Cn1cc(C[C@@H]2Nc3ccc(C(=O)NO)cc3NC2=O)c2ccccc21` [Compound 4l, (S)-1,2,3,4-tetrahydro-N-hydroxy-2-((1-methyl-1-H-indol-3-yl)methyl)-3-oxoquinoxaline-6-carboxamide]: the IC50 lay within 500 to 2000 nM. Consider `COc1ccc(CN2c3ccccc3NC(=O)C2CCCCCC(=O)Nc2cc(-c3cccs3)ccc2N)cc1` (stereo not shown) [Compound 49, 6-(1-(4-methoxybenzyl)-1,2,3,4-tetrahydro-3-oxoquinoxalin-2-yl)-N-(2-amino-5-(thiophen-2-yl)phenyl)hexanamide], for which the IC50 lay within 50 to 500 nM. Then `O=C(NO)c1ccc(CN2c3ccccc3NC(=O)[C@H]2Cc2c[nH]c3ccccc23)cc1` [Compound 54b2, (R)-4-((2-((1H-indol-3-yl)methyl)-3-oxo-3,4-dihydroquinoxalin-1(2H)-yl)methyl)-N-hydroxybenzamide], with less than 50 nM; and `O=C(NO)c1ccc(CN2c3ccccc3NC(=O)[C@H]2Cc2csc3ccccc23)cc1` [Compound 54b13, (R)-4-((2-(benzo[b]thiophen-3-ylmethyl)-3-oxo-3,4-dihydroquinoxalin-1(2H)-yl)methyl)-N-hydroxybenzamide], with less than 50 nM. For `O=C(CCc1ccc2c(c1)NC(=O)[C@H](Cc1c[nH]c3ccccc13)N2)NO` [Compound 69, 3-((S)-2-((1H-indol-3-yl)methyl)-1,2,3,4-tetrahydro-3-oxoquinoxalin-6-yl)-N-hydroxypropanamide], the IC50 was in the range of 500 to 2000 nM. Then `O=C(CCCCCN1C(=O)[C@@H](c2ccccc2)NC(=O)c2ccccc21)NO` [Compound 68b4, 6-((R)-2,3,4,5-tetrahydro-2,5-dioxo-3-phenylbenzo[e][1,4]diazepin-1-yl)-N-hydroxyhexanamide], with 50 to 500 nM; and `O=C(NO)c1ccc(CN2c3ccccc3NC(=O)[C@H]2Cc2ccc(C(F)(F)F)cc2)cc1` [Compound 54b17, (R)-4-((2-(4-trifluoromethylbenzyl)-3-oxo-3,4-dihydroquinoxalin-1(2H)-yl)methyl)-N-hydroxybenzamide], with 50 to 500 nM; and `CC(C)[C@H]1C(=O)Nc2cc(C(=O)NO)ccc2N1CCCc1ccccc1` [Compound 16c, (S)-1,2,3,4-tetrahydro-N-hydroxy-2-isopropyl-3-oxo-1-(3-phenylpropyl)quinoxaline-6-carboxamide], with 500 to 2000 nM.

As for `O=C(CCCCCN1C(=O)[C@H](Cc2c[nH]c3ccccc23)NC(=O)c2ccccc21)NO` [Compound 68b7, 6-((S)-3-((1H-Indol-3-yl)methyl)-2,3,4,5-tetrahydro-2,5-dioxobenzo[e][1,4]diazepin-1-yl)-N hydroxyhexanamide], the IC50 lay within 2000 to 10000 nM. Next, `O=C(CCCCCN1C(=O)[C@@H](Cc2ccncc2)NC(=O)c2ccccc21)NO` [Compound 68b9, 6-((R)-2,3,4,5-Tetrahydro-2,5-dioxo-3-((pyridin-4-yl)methyl)benzo [e][1,4]diazepin-1-yl)-N-hydroxyhexanamide]: 500 to 2000 nM; `CC(C)(C)C[C@H]1NC(=O)c2ccccc2N(CCCCCC(=O)NO)C1=O` [Compound 68b18, 6-((R)-2,3,4,5-Tetrahydro-3-neopentyl-2,5-dioxobenzo[e][1,4]diazepin-1-yl)-N-hydroxyhexanamide]: 50 to 500 nM; `O=C(CCCCCC1NC(=O)c2cc(Oc3ccccc3)ccc2NC1=O)NO` (stereo not shown) [Compound 88a, 6-(2,3,4,5-Tetrahydro-2,5-dioxo-7-phenoxy-1H-benzo[e][1,4]diazepin-3-yl)-N-hydroxyhexanamide]: 50 to 500 nM.

In the case of `O=C(CCCCCC1NC(=O)c2ccccc2NC1=O)NO` (stereo not shown) [Compound 74, 6-(2,3,4,5-Tetrahydro-2,5-dioxo-1H-benzo[e][1,4]diazepin-3-yl)-N-hydroxyhexanamide], the IC50 fell in the range of 50 to 500 nM. Regarding `CC(C)[C@H]1NC(=O)c2ccc(C(=O)NO)cc2NC1=O` [Compound 97a, (R)—N-Hydroxy-3-isopropyl-2,5-dioxo-2,3,4,5-tetrahydro-1H-benzo[e][1,4]diazepine-8-carboxamide], the IC50 is 2000 to 10000 nM. With `O=C(CCO[C@@H]1C[C@H](C(=O)Nc2cccc3cccnc23)N(C(=O)OCc2ccccc2)C1)NO` [Compound 112c, (2R,4R)-benzyl 4-(3-(hydroxyamino)-3-oxopropoxy)-2-(quinolin-8-ylcarbamoyl) pyrrolidine-1-carboxylate], the IC50 lay within 500 to 2000 nM. On to `O=C(NO)c1cnc(N[C@H]2C[C@@H](C(=O)Nc3cccc4cccnc34)N(C(=O)OCc3ccccc3)C2)nc1` [Compound 122, (2S,4S)-Benzyl 4-(5-(hydroxycarbamoyl)pyrimidin-2-ylamino)-2-(quinolin-8-ylcarbamoyl)pyrrolidine-1-carboxylate], for which the IC50 was less than 50 nM. Then `O=C(NO)c1ccc(CN2c3ccccc3NC(=O)[C@H]2Cc2ccccc2)cc1` [Compound 54b5, (R)-4-((2-benzyl-3-oxo-3,4-dihydroquinoxalin-1(2H)-yl)methyl)-N-hydroxybenzamide], with less than 50 nM; and `Nc1ccc(-c2cccs2)cc1NC(=O)c1ccc(-c2ccc3c(c2)NC(=O)[C@H](Cc2c[nH]c4ccccc24)N3)cc1` [Compound 62, 4-((S)-2-((1H-indol-3-yl)methyl)-1,2,3,4-tetrahydro-3-oxoquinoxalin-6-yl)-N-(2-amino-5-(thiophen-2-yl)phenyl)benzamide], with 50 to 500 nM; and `O=C(NO)c1ccc(CN2c3ccccc3NC(=O)[C@@H]2Cc2c[nH]c3ccccc23)cc1` [Compound 54b3, (S)-4-((2-((1H-indol-3-yl)methyl)-3-oxo-3,4-dihydroquinoxalin-1(2H)-yl)methyl)-N-hydroxybenzamide], with less than 50 nM. Turning to `O=C(NO)c1ccc2c(c1)NC(=O)[C@H](c1ccccc1)NC2=O` [Compound 97i, (S)-N-Hydroxy-2,5-dioxo-3-phenyl-2,3,4,5-tetrahydro-1H-benzo[e][1,4]diazepine-8-carboxamide], the IC50 lay in the range of 2000 to 10000 nM. As to `CSCC[C@@H]1Nc2ccc(C(=O)NO)cc2NC1=O` [Compound 4b, (S)-1,2,3,4-tetrahydro-N-hydroxy-2-(2-(methylthio)ethyl)-3-oxoquinoxaline-6-carboxamide], the IC50 lay within 2000 to 10000 nM. Consider `CC(C)C[C@H]1NC(=O)c2ccccc2N(CCCCCC(=O)Nc2cscc2N)C1=O` [Compound 72, N-(4-Aminothiophen-3-yl)-6-((R)-2,3,4,5-tetrahydro-3-isobutyl-2,5-dioxobenzo[e][1,4]diazepin-1-yl)hexanamide], for which the IC50 lay in the range of 2000 to 10000 nM.
